According to DBAASP:
Converted amounts (≈) assume the structure as drawn.

Assays:
Assay in all cases: ≥ marks a high value that may be exact or a test limit, other limits are often not marked, values filed in µg/mL are converted to µM
[1] = system: Pseudomonas aeruginosa CMCCB 10104
[2] = system: Candida albicans ATCC 2002
[3] = system: Staphylococcus aureus ATCC 25923
[4] = system: Escherichia coli ATCC 25922
[5] = system: Salmonella enterica subsp. enterica serovar Pullorum C79-13
[6] = system: Enterococcus faecalis ATCC 29212
[7] = system: Salmonella enterica subsp. enterica serovar Typhimurium C77-31
[8] = system: Staphylococcus epidermidis ATCC 12228
[9] = system: Pseudomonas aeruginosa ATCC 27853
[10] = system: Salmonella enterica subsp. enterica serovar Typhimurium ATCC 14028
Escherichia coli UB1005 = system: Escherichia coli UB1005
[11] = system: Staphylococcus aureus ATCC 29213

`CC[C@H](C)[C@@H]1NC(=O)[C@H](CCCCN)NC(=O)[C@@H](NC(=O)[C@H](CCCCN)NC(=O)[C@H](CC(C)C)NC(=O)[C@H](CC(N)=O)NC(=O)[C@H](CC(=O)O)NC(=O)[C@H](CC(C)C)NC(=O)[C@H](CC(C)C)NC(=O)[C@@H](NC(=O)[C@@H](NC(=O)[C@H](CC(=O)O)NC(=O)[C@H](CCSC)NC(=O)[C@H](CC(N)=O)NC(=O)[C@H](CCCCN)NC(=O)[C@H](C)NC(=O)[C@@H](NC(=O)[C@H](CC(N)=O)NC(=O)[C@H](CCCCN)NC(=O)[C@H](C)NC(=O)[C@@H](NC(=O)[C@H](C)NC(=O)[C@H](CCSC)NC(=O)[C@H](Cc2ccccc2)NC(=O)CN)[C@@H](C)O)C(C)C)C(C)C)[C@@H](C)O)CSSC[C@@H](C(=O)O)NC(=O)[C@H](C)NC(=O)[C@H](CCCCN)NC(=O)[C@H]([C@@H](C)O)NC1=O` [GFMATAKNVAKNMDVTLLDNLKCKITKAC] gave an MIC [1] of 1.3 µM (≈ 4.1 µg/mL), an MIC [2] of 1.3 µM (≈ 4.1 µg/mL) and an MIC [3] of 1.3 µM (≈ 4.1 µg/mL). The MIC [4] was 2.61 µM (≈ 8.2 µg/mL).

For `CC[C@H](C)[C@@H]1NC(=O)[C@H](CCCCN)NC(=O)[C@@H](NC(=O)[C@H](CCCCN)NC(=O)[C@H](CC(C)C)NC(=O)[C@H](CC(N)=O)NC(=O)[C@H](CC(=O)O)NC(=O)[C@H](CC(C)C)NC(=O)[C@H](CC(C)C)NC(=O)[C@H](CC(N)=O)NC(=O)CNC(=O)[C@H](C)NC(=O)[C@H](CCC(=O)O)NC(=O)[C@H](CC(N)=O)NC(=O)[C@H](CCCCN)NC(=O)[C@H](C)NC(=O)[C@@H](NC(=O)[C@H](CC(N)=O)NC(=O)[C@H](CCCCN)NC(=O)[C@H](C)NC(=O)[C@@H](NC(=O)[C@H](CC(=O)O)NC(=O)[C@H](CCSC)NC(=O)[C@H](Cc2ccccc2)NC(=O)CN)[C@@H](C)O)C(C)C)CSSC[C@@H](C(=O)O)NC(=O)[C@H](C)NC(=O)[C@H](CCCCN)NC(=O)[C@H]([C@@H](C)O)NC1=O` [GFMDTAKNVAKNEAGNLLDNLKCKITKAC], the MIC [1] was 4.05 µM (≈ 12.6 µg/mL), the MIC [2] was 2.02 µM (≈ 6.3 µg/mL) and the MIC [3] was 2.02 µM (≈ 6.3 µg/mL). It also gave an MIC [4] of 4.05 µM (≈ 12.6 µg/mL).

`CC[C@H](C)[C@H](NC(=O)[C@H](CC(C)C)NC(=O)CN)C(=O)N[C@@H](CC(=O)O)C(=O)N[C@H](C(=O)N[C@H](C(=O)N[C@@H](CCCCN)C(=O)N[C@@H](CC(N)=O)C(=O)N[C@@H](CCSC)C(=O)N[C@@H](C)C(=O)N[C@@H](CC(C)C)C(=O)N[C@@H](CC(N)=O)C(=O)N[C@@H](C)C(=O)N[C@@H](C)C(=O)N[C@@H](CCCCN)C(=O)N[C@@H](CO)C(=O)N[C@@H](C)C(=O)NCC(=O)N[C@H](C(=O)N[C@@H](CO)C(=O)N[C@H](C(=O)N[C@@H](CC(C)C)C(=O)N[C@@H](CC(N)=O)C(=O)N[C@H](C(=O)N[C@@H](CC(C)C)C(=O)N[C@@H](CO)C(=O)N[C@H]1CSSC[C@@H](C(=O)O)NC(=O)[C@H]([C@@H](C)O)NC(=O)[C@H](CCCCN)NC(=O)[C@H](CO)NC(=O)[C@H](CC(C)C)NC(=O)[C@H](CCCCN)NC1=O)[C@@H](C)O)C(C)C)C(C)C)[C@@H](C)CC)[C@@H](C)O` [GLIDTIKNMALNAAKSAGVSVLNTLSCKLSKTC] was tested, and the MIC [1] was 12.2 µM (≈ 41.2 µg/mL), the MIC [2] was 3.06 µM (≈ 10.3 µg/mL) and the MIC [3] was 6.12 µM (≈ 20.6 µg/mL). The MIC [4] was 6.12 µM (≈ 20.6 µg/mL).

Work on `CC[C@H](C)[C@H](NC(=O)[C@H](CC(C)C)NC(=O)[C@H](CC(C)C)NC(=O)[C@H](CC(N)=O)NC(=O)[C@H](CCCCN)NC(=O)[C@@H](NC(=O)[C@@H](NC(=O)[C@H](C)NC(=O)[C@H](CC(C)C)NC(=O)[C@@H](NC(=O)CN)C(C)C)[C@@H](C)O)C(C)C)C(=O)NCC(=O)N[C@H](C(=O)NCC(=O)N[C@@H](CC(=O)O)C(=O)NCC(=O)N[C@@H](C)C(=O)N[C@@H](C)C(=O)N[C@@H](CCC(N)=O)C(=O)N[C@@H](CO)C(=O)N[C@H](C(=O)N[C@@H](CC(C)C)C(=O)N[C@@H](CCCCN)C(=O)N[C@H](C(=O)N[C@@H](CC(C)C)C(=O)N[C@@H](CO)C(=O)N[C@H]1CSSC[C@@H](C(=O)O)NC(=O)[C@H](CC(=O)O)NC(=O)[C@H](CC(N)=O)NC(=O)[C@H](CO)NC(=O)[C@H](CC(C)C)NC(=O)[C@H](CCCCN)NC1=O)[C@@H](C)O)C(C)C)[C@@H](C)O` [GVLATVKNLLIGTGDGAAQSVLKTLSCKLSNDC] yielded an MIC [1] of 13.6 µM (≈ 44.8 µg/mL), an MIC [2] of 3.4 µM (≈ 11.2 µg/mL) and an MIC [3] of 6.81 µM (≈ 22.4 µg/mL). The MIC [4] was 3.4 µM (≈ 11.2 µg/mL).

For `CC[C@H](C)[C@H](NC(=O)[C@H](CC(C)C)NC(=O)[C@H](CC(C)C)NC(=O)[C@H](CC(=O)O)NC(=O)[C@H](CCCCN)NC(=O)[C@@H](NC(=O)[C@@H](NC(=O)CNC(=O)[C@H](CC(C)C)NC(=O)[C@@H](NC(=O)CN)C(C)C)[C@@H](C)O)C(C)C)C(=O)NCC(=O)N[C@@H](C)C(=O)NCC(=O)N[C@@H](CCCCN)C(=O)N[C@@H](CO)C(=O)N[C@@H](C)C(=O)N[C@@H](C)C(=O)N[C@@H](CCC(N)=O)C(=O)N[C@@H](CO)C(=O)N[C@H](C(=O)N[C@@H](CC(C)C)C(=O)N[C@@H](CCCCN)C(=O)N[C@H](C(=O)N[C@@H](CC(C)C)C(=O)N[C@@H](CO)C(=O)N[C@H]1CSSC[C@@H](C(=O)O)NC(=O)[C@H](CC(=O)O)NC(=O)[C@H](CC(N)=O)NC(=O)[C@H](CO)NC(=O)[C@H]([C@@H](C)CC)NC(=O)[C@H](CCCCN)NC1=O)[C@@H](C)O)[C@@H](C)O` [GVLGTVKDLLIGAGKSAAQSTLKTLSCKISNDC], the MIC [1] was 7.05 µM (≈ 23.2 µg/mL), the MIC [2] was 1.76 µM (≈ 5.8 µg/mL) and the MIC [3] was 3.52 µM (≈ 11.6 µg/mL). For the same compound, the MIC [4] was 1.76 µM (≈ 5.8 µg/mL).

For `CC[C@H](C)[C@H](N)C(=O)N[C@@H](CC(C)C)C(=O)N1CCC[C@H]1C(=O)N[C@@H](Cc1ccccc1)C(=O)N[C@H](C(=O)N[C@@H](C)C(=O)NCC(=O)N[C@H](C(=O)N[C@@H](C)C(=O)N[C@@H](C)C(=O)N[C@@H](CCC(=O)O)C(=O)N[C@@H](CCSC)C(=O)N[C@@H](CCSC)C(=O)N[C@@H](CCC(N)=O)C(=O)N[C@@H](Cc1cnc[nH]1)C(=O)N[C@H](C(=O)N[C@@H](Cc1ccc(O)cc1)C(=O)N[C@H]1CSSC[C@@H](C(=O)O)NC(=O)[C@H](CCCCN)NC(=O)[C@H](CCCCN)NC(=O)[C@H](CO)NC(=O)[C@H](C)NC(=O)[C@H](C)NC1=O)C(C)C)C(C)C)C(C)C` [ILPFVAGVAAEMMQHVYCAASKKC], the MIC [1] was 4.52 µM (≈ 11.6 µg/mL), the MIC [2] was 2.26 µM (≈ 5.8 µg/mL) and the MIC [3] was 4.52 µM (≈ 11.6 µg/mL). It also gave an MIC [4] of 2.26 µM (≈ 5.8 µg/mL).

With `CC[C@H](C)[C@H](NC(=O)[C@H](CCCCN)NC(=O)[C@H](CCCCN)NC(=O)[C@H](Cc1ccccc1)NC(=O)[C@H](CC(C)C)NC(=O)[C@H](CCCCN)NC(=O)[C@H](Cc1c[nH]c2ccccc12)NC(=O)[C@@H](N)CCCCN)C(=O)N[C@@H](Cc1c[nH]c2ccccc12)C(=O)N[C@@H](Cc1c[nH]c2ccccc12)C(=O)N1CCC[C@H]1C(=O)N[C@@H](Cc1ccccc1)C(=O)N[C@@H](CC(C)C)C(=O)N[C@@H](CCCN=C(N)N)C(=O)N[C@@H](CCCN=C(N)N)C(N)=O` [KWKLFKKIWWPFLRR] the MIC [5] was 4 µM (≈ 8.53 µg/mL), the MIC [6] was 2 µM (≈ 4.26 µg/mL) and the MIC [7] was 2 µM (≈ 4.26 µg/mL). For the same compound, the MIC [8] was 2 µM (≈ 4.26 µg/mL), the MIC [9] was 4 µM (≈ 8.53 µg/mL) and the MIC [10] was 4 µM (≈ 8.53 µg/mL). The MIC (Escherichia coli UB1005) was 4 µM (≈ 8.53 µg/mL).

For `CC[C@H](C)[C@H](NC(=O)[C@@H]1CCCN1C(=O)[C@@H]1CCCN1)C(=O)N[C@H](C(=O)NCC(=O)N[C@@H](CO)C(=O)N[C@H](C(=O)N1CCC[C@H]1C(=O)N[C@@H](CC(C)C)C(=O)NCC(=O)N[C@@H](CS)C(=O)NCC(N)=O)[C@@H](C)CC)C(C)C` [PPIVGSIPLGCG], the MIC [7] was ≥ 128 µM, the MIC [3] was > 128 µM and the MIC [11] was > 128 µM. For the same compound, the MIC [8] was > 128 µM, the MIC [4] was > 128 µM and the MIC (Escherichia coli UB1005) was ≥ 128 µM.

With `CC[C@H](C)[C@H](NC(=O)[C@H](Cc1ccccc1)NC(=O)[C@H](CCCN=C(N)N)NC(=O)[C@@H](NC(=O)[C@@H]1CCCN1C(=O)[C@H](CO)NC(=O)[C@H](CC(C)C)NC(=O)[C@H](C)NC(=O)[C@H](C)NC(=O)[C@H](CCCCN)NC(=O)[C@H](CC(N)=O)NC(=O)[C@H](CCSC)NC(=O)CNC(=O)[C@@H](NC(=O)[C@H](CCC(N)=O)NC(=O)[C@H](CC(=O)O)NC(=O)[C@H](C)NC(=O)[C@@H](N)CO)[C@@H](C)O)[C@@H](C)CC)C(=O)N[C@@H](CO)C(=O)N[C@@H](CCCCN)C(=O)N[C@@H](CO)C(=O)N[C@H](C(=O)O)C(C)C` [SADQTGMNKAALSPIRFISKSV] the MIC [1] was ≥ 86.1 µM, the MIC [2] was ≥ 86.1 µM and the MIC [3] was > 86.1 µM. For the same compound, the MIC [4] was > 86.1 µM.

Work on `CC[C@H](C)[C@H](NC(=O)[C@H](CC(C)C)NC(=O)[C@H](CC(C)C)NC(=O)[C@H](CC(=O)O)NC(=O)[C@H](CCCCN)NC(=O)[C@@H](NC(=O)[C@@H](NC(=O)CNC(=O)[C@H](CC(C)C)NC(=O)[C@@H](NC(=O)[C@@H](N)CO)C(C)C)[C@@H](C)O)C(C)C)C(=O)NCC(=O)N[C@@H](C)C(=O)NCC(=O)N[C@@H](CCCCN)C(=O)N[C@@H](CO)C(=O)N[C@@H](C)C(=O)N[C@@H](C)C(=O)N[C@@H](CCC(N)=O)C(=O)N[C@@H](CO)C(=O)N[C@H](C(=O)N[C@@H](CC(C)C)C(=O)N[C@H](C(=O)N[C@@H](C)C(=O)N[C@@H](CC(N)=O)C(=O)N[C@@H](CO)C(=O)N[C@H]1CSSC[C@@H](C(=O)O)NC(=O)[C@H](CO)NC(=O)[C@H](CC(N)=O)NC(=O)[C@H](CO)NC(=O)[C@H](CC(C)C)NC(=O)[C@H](CCCCN)NC1=O)[C@@H](C)O)C(C)C` [SVLGTVKDLLIGAGKSAAQSVLTANSCKLSNSC] yielded an MIC [1] of 3.65 µM (≈ 11.8 µg/mL), an MIC [2] of 3.65 µM (≈ 11.8 µg/mL) and an MIC [3] of 1.82 µM (≈ 5.9 µg/mL). It also gave an MIC [4] of 3.65 µM (≈ 11.8 µg/mL).
